Data from patent publication US20090239861A1, “QUINAZOLINE DERIVATIVES AS ANTICANCER AGENTS” (priority 2005, published 2009).

Columns and labels:
erbB2 tyrosine kinase = target: T1, erbB2 tyrosine kinase (Homo sapiens, UniProt P04626); test: Protein tyrosine kinase phosphorylation assay, Test (a), erbB2; format: biochemical; details: ATP at Km concentration; read-out: IC50 Test (a): Inhibition of erbB2 tyrosine kinase protein phosphorylation
T1 construct: Recombinant intracellular fragments of EGFR, erbB2 and erbB4; made in house; host or cells: baculovirus/Sf21 insect cells
T1 sequence (P04626 676-1255 limits assumed): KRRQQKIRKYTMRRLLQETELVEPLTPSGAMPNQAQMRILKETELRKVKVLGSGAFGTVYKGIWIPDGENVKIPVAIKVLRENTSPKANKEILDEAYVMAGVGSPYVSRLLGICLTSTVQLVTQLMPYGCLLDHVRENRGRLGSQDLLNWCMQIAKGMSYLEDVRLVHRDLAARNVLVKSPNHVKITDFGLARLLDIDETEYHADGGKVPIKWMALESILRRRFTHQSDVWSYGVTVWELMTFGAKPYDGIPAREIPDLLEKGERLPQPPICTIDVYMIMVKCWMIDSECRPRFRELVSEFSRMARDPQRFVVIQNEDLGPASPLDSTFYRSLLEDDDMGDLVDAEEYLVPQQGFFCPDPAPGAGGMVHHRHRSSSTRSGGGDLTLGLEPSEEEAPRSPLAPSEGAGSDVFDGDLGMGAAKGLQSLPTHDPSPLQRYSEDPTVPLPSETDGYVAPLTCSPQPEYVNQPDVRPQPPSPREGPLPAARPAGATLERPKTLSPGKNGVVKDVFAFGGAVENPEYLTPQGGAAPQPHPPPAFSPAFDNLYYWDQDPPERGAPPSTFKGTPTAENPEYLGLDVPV
Experimental: (§1) a) Protein Tyrosine Kinase phosphorylation Assays
(§2) This test measures the ability of a test compound to inhibit the phosphorylation of a tyrosine containing polypeptide substrate by EGFR, erbB2 and erbB4 tyrosine kinase enzyme.
(§3) Recombinant intracellular fragments of EGFR, erbB2 and erbB4 (accession numbers X00588, X03363 and L07868 respectively) were cloned and expressed in the baculovirus/Sf21 system. […]
(§4) Constitutive kinase activity of these recombinant proteins was determined by their ability to phosphorylate a synthetic peptide (made up of a random co-polymer of Glutamic Acid, Alanine and Tyrosine in the ratio of 6:3:1). […]
(§5) The immobilised phospho-peptide product of the reaction was detected by immunological methods. […] After further washing, HRP activity in each well of the plate was measured colorimetrically using 22′-Azino-di-[3-ethylbenzthiazoline sulfonate (6)]diammonium salt crystals (ABTS™ from Roche) as a substrate.
(§6) Quantification of colour development and thus enzyme activity was achieved by the measurement of absorbance at 405 nm on a Molecular Devices ThermoMax microplate reader. Kinase inhibition for a given compound was expressed as an IC50 value. […] The range of phosphorylation was calculated from the positive (vehicle plus ATP) and negative (vehicle minus ATP) control values.

EGFR tyrosine kinase = target: T2, EGFR tyrosine kinase (Homo sapiens, UniProt P00533); test: Protein tyrosine kinase phosphorylation assay, Test (a), EGFR; format: biochemical; details: ATP at Km concentration; read-out: IC50 Test (a): Inhibition of EGFR tyrosine kinase protein phosphorylation
T2 construct: Recombinant intracellular fragments of EGFR, erbB2 and erbB4; made in house; host or cells: baculovirus/Sf21 insect cells
T2 sequence (P00533 669-1210 limits assumed): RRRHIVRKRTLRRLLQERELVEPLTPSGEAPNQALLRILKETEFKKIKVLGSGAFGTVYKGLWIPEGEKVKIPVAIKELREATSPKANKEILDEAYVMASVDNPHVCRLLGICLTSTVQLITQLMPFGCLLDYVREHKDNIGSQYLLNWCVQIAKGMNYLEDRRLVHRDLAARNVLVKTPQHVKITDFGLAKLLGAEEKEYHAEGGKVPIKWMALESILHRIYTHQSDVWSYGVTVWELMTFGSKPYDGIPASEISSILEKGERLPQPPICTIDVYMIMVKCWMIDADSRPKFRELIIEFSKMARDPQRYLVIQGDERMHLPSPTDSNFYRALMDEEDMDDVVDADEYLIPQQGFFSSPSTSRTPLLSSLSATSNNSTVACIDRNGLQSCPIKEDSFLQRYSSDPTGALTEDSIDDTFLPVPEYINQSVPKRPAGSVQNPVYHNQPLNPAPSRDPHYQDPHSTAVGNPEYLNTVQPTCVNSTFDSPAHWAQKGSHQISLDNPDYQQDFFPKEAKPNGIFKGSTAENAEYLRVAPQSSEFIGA
Experimental: as §1, §2, §3, §4, §5, §6

IC50 (erbB2 tyrosine kinase)	IC50 (EGFR tyrosine kinase)	Compound
15 nM	170 nM	C[C@@H](Oc1cccc2ncnc(Nc3ccc4c(ccn4Cc4ccccn4)c3)c12)C(=O)N(C)C [Example 2, (2R)—N,N-Dimethyl-2-[(4-{[1-(pyridin-2-ylmethyl)-1H-indol-5-yl]amino}quinazolin-5-yl)oxy]propanamide]
11 nM	370 nM	C[C@@H](Oc1cccc2ncnc(Nc3ccc4c(ccn4Cc4ccccn4)c3)c12)C(=O)N(C)CCO [Example 1, (2R)—N-(2-Hydroxyethyl)-N-methyl-2-[(4-{[1-(pyridin-2-ylmethyl)-1H-indol-5-yl]amino}quinazolin-5-yl)oxy]propanamide]
